# Source: US9309242B2, “Substituted pyrido[2,3-b]pyrazines as FGFR kinase inhibitors” (priority 2011, dated 2016)
# Counter-ions that a name gives are not always drawn. Like-named read-outs stand apart in the source and are kept apart here.
# Key:
# [1] = target: FGFR1 (h) (Homo sapiens, UniProt P11362); assay: FGFR1 (enzymatic assay), TR-FRET; format: biochemical; settings: read-out: FGFR 1 pIC50 (converted)
# [2] = target: FGFR2 (h) (Homo sapiens, UniProt P21802); assay: FGFR2 (enzymatic assay), TR-FRET; format: biochemical; settings: enzymatic assay, read-out: FGFR 2 pIC50 (converted)
# FGFR2 (h), sequence (P21802 22-821): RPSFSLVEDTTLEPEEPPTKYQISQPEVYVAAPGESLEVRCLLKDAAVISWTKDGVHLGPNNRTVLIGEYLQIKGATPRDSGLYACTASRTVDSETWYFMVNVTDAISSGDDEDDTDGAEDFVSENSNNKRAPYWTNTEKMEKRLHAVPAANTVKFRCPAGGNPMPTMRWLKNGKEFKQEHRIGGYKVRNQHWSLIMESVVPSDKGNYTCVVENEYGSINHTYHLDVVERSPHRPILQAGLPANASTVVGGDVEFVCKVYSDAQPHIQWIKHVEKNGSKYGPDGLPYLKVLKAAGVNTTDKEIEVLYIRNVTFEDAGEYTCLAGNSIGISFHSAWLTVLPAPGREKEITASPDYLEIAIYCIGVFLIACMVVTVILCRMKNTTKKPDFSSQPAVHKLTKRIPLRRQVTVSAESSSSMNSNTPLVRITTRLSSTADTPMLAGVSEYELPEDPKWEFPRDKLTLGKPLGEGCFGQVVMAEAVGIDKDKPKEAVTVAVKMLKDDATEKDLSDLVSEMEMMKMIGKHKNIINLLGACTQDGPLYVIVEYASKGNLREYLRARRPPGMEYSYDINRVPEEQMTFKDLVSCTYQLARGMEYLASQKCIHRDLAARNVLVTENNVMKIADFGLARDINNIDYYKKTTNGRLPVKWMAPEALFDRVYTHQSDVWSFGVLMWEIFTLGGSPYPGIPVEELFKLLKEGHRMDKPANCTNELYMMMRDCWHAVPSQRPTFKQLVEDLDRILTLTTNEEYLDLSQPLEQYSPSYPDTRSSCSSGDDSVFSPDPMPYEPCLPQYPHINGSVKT
# How it was run: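 At low ATP (0.4 μM), enzyme activity of human FGFR2 (150 ng/ml) toward biotinylated Flt3 substrate (500 nM) was followed with test compound present. Reactions ran in 50 mM HEPES pH 7.5, 6 mM MnCl2, 1 mM DTT, 0.1 mM Na3VO4, 0.01% Triton-X-100, 1% DMSO.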
# [3] = target: FGFR3 (h) (Homo sapiens, UniProt P22607); assay: FGFR3 (enzymatic assay), TR-FRET; format: biochemical; settings: read-out: FGFR 3 pIC50 (converted)
# FGFR3 (h), sequence (P22607 23-806): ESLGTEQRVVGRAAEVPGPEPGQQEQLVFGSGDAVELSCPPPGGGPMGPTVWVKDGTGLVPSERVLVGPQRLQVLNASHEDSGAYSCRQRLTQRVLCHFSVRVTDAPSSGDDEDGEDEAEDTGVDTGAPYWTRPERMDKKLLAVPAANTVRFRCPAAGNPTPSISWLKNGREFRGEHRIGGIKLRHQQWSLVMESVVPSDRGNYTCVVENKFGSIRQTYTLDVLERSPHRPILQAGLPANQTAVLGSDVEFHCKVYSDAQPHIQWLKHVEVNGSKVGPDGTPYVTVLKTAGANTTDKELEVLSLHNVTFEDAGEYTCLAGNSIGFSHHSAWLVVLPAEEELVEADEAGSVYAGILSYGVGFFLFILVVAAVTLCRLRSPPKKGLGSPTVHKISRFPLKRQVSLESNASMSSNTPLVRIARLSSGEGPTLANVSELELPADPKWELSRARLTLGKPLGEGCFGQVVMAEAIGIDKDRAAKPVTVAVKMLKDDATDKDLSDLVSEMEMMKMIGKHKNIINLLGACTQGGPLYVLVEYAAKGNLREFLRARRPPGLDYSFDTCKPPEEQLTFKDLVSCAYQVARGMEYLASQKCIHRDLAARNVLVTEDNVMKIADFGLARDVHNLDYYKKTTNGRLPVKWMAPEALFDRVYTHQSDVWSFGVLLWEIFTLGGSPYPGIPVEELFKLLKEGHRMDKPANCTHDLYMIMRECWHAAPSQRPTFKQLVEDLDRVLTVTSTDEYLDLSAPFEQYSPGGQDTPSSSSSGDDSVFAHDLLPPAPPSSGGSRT
# Description: Time-Resolved Fluorescence Resonance Energy Transfer (TR-FRET) signal (ex340 nm.
# [4] = target: FGFR4 (h) (Homo sapiens, UniProt P22455); assay: FGFR4 (enzymatic assay), TR-FRET; format: biochemical; settings: FGFR 4 pIC50, enzymatic assay
# [5] = target: KDR (h) (Homo sapiens, UniProt P35968); assay: KDR (VEGFR2) (enzymatic assay), TR-FRET; format: biochemical; settings: read-out: VEGFR 2 (KDR) pIC50 (converted)
# KDR (h), sequence (P35968 20-1356): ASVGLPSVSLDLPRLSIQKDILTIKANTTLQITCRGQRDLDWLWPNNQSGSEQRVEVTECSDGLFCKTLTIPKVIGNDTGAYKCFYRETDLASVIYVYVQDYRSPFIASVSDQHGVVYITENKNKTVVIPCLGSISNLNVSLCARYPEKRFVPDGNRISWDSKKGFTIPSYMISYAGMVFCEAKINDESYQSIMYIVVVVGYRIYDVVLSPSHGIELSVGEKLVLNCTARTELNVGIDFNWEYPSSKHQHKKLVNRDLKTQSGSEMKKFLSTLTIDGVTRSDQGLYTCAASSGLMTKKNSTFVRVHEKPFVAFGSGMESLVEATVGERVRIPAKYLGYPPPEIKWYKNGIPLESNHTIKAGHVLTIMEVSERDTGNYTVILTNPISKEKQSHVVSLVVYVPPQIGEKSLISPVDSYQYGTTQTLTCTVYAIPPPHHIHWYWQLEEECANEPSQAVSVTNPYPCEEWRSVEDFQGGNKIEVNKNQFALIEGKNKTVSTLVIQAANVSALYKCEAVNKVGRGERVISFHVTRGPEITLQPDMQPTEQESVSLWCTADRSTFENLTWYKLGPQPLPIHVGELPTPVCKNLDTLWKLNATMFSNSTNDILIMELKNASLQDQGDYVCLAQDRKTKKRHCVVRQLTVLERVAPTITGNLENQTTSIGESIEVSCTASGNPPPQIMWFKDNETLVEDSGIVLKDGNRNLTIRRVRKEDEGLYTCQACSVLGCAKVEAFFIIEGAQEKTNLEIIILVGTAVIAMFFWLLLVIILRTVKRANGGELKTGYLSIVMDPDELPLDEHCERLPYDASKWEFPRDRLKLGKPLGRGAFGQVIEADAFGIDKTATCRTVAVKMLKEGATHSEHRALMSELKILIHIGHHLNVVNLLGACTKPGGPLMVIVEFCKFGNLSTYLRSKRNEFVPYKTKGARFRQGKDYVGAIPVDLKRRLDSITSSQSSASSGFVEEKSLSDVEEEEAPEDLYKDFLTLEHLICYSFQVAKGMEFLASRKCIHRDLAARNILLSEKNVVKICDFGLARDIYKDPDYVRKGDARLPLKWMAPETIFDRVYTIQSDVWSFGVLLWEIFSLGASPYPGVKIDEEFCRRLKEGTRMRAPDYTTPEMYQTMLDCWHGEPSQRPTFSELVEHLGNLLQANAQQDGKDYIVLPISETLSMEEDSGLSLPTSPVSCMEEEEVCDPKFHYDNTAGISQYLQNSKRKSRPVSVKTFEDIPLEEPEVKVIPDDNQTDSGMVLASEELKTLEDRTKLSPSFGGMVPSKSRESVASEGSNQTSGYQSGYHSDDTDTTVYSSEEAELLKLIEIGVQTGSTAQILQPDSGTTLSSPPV
# How it was run: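 Phosphorylation of biotinylated Flt3 peptide (500 nM) by 150 ng/ml enzyme was measured at 3 μM ATP in Mn2+-containing HEPES buffer, pH 7.5, over 120 min at room temperature. Detection used Eu-anti-P-Tyr and SA-XL-665 TR-FRET.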
# [6] = target: T1, Ba/F3-FGFR1-transfected cells (Homo sapiens, UniProt P11362); assay: Ba/F3-FGFR1 (minus IL3) cellular proliferation assay, Alamar Blue; format: cell-based
# T1 construct: BAF3-FGFR1 (MIN IL3) pIC50; other: minus IL3
# How it was run: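 Ba/F3 cells transfected with FGFR1 (20000 cells/well) were plated onto compound in phenol red-free RPMI-1640 with 10% FBS, 2 mM L-glutamine and gentamycin, then kept 24 h at 37 °C, 5% CO2. Alamar Blue (resazurin) was added for 4 h and fluorescence read at ex 540/em 590 nm.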
# [7] = tested on: Ba/F3-FGFR1-transfected cells; assay: Ba/F3-FGFR1 (plus IL3) cellular proliferation assay, counterscreen with 10 ng/ml murine IL3; format: cell-based; settings: read-out: BAF3-FGFR1 (PLUS IL3) pIC50 (converted)
# How it was run: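 Proliferation read-out: resazurin-based Alamar Blue fluorescence (540/590 nm) after 4 h, following 24 h compound treatment of 20000 Ba/F3-FGFR1 cells per well in 10% FBS RPMI at 37° C. IL3 counterscreen used the same protocol plus 10 ng/ml murine IL3.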
# [8] = target: T2, Ba/F3-FGFR3-transfected cells (Homo sapiens, UniProt P22607); assay: Ba/F3-FGFR3 (minus IL3) cellular proliferation assay, Alamar Blue; format: cell-based
# T2 construct: BAF3-FGFR3 (MIN IL3) pIC50; other: minus IL3
# How it was run: (§1)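 Ba/F3 cells transfected with FGFR3 were seeded at 20000 cells/well in phenol red-free RPMI-1640 with 10% FBS over compound in DMSO and kept 24 hours at 37° C, 5% CO2. Alamar Blue (resazurin) was then added for 4 hours and fluorescence read at ex 540/em 590 nm. The counterscreen repeated this with 10 ng/ml murine IL3.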
# [9] = tested on: Ba/F3-FGFR3-transfected cells; assay: Ba/F3-FGFR3 (plus IL3) cellular proliferation assay, counterscreen with 10 ng/ml murine IL3; format: cell-based; settings: read-out: BAF3-FGFR3 (PLUS IL3) pIC50 (converted)
# How it was run: as §1
# [10] = target: T3, Ba/F3-KDR-transfected cells (Homo sapiens, UniProt P35968); assay: Ba/F3-KDR (minus IL3) cellular proliferation assay, Alamar Blue; format: cell-based
# T3 construct: BAF3-KDR (MIN IL3) pIC50; other: minus IL3
# T3 sequence (P35968 whole entry, change not shown): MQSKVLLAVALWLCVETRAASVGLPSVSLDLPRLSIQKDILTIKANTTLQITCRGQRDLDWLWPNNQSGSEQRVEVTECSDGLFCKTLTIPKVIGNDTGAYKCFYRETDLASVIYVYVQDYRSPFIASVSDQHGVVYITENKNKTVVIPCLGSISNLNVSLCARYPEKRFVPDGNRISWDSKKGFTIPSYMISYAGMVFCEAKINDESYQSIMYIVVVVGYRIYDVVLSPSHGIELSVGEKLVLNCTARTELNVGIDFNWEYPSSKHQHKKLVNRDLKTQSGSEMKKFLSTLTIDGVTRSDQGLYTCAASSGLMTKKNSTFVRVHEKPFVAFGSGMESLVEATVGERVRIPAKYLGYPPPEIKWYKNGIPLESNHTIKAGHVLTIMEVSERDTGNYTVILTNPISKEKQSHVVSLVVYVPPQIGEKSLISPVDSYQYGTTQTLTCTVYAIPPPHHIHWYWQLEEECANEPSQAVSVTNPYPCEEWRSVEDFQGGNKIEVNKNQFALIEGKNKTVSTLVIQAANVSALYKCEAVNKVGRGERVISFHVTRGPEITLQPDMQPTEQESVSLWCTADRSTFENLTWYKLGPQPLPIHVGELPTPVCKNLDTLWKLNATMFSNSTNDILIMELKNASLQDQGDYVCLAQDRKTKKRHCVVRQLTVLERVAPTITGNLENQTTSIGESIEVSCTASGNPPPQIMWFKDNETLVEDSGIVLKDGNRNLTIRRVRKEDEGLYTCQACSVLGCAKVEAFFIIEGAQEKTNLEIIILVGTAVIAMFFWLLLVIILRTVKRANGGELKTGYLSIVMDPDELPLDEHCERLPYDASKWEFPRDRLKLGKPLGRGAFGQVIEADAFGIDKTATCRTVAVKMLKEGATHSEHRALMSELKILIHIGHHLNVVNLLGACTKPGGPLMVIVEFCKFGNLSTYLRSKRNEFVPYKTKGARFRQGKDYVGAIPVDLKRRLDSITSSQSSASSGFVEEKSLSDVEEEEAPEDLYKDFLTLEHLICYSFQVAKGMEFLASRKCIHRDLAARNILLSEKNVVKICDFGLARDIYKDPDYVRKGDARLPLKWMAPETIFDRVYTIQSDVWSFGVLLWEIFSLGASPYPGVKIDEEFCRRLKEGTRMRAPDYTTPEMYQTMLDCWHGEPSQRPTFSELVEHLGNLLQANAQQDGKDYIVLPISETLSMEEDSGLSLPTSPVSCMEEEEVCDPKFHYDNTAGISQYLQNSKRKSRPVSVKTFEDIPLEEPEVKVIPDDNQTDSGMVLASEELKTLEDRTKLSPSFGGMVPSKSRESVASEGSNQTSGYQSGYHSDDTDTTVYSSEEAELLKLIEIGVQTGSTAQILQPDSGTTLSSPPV
# How it was run: (§2)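 Compound in DMSO was dispensed first, then transfected cells in serum-containing RPMI-1640 were added. After a 24 h incubation, viability was gauged by resazurin reduction over 4 h, measured as fluorescence.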
# [11] = tested on: Ba/F3-KDR-transfected cells; assay: Ba/F3-KDR (plus IL3) cellular proliferation assay, counterscreen with 10 ng/ml murine IL3; format: cell-based; settings: read-out: BAF3-KDR (PLUS IL3) pIC50 (converted)
# How it was run: as §2
# [12] = target: Ba/F3-FGFR4-transfected cells (Homo sapiens, UniProt P22455); assay: Ba/F3-FGFR4 cellular proliferation assay, Alamar Blue; format: cell-based
# Ba/F3-FGFR4-transfected cells, sequence (P22455 whole entry, change not shown): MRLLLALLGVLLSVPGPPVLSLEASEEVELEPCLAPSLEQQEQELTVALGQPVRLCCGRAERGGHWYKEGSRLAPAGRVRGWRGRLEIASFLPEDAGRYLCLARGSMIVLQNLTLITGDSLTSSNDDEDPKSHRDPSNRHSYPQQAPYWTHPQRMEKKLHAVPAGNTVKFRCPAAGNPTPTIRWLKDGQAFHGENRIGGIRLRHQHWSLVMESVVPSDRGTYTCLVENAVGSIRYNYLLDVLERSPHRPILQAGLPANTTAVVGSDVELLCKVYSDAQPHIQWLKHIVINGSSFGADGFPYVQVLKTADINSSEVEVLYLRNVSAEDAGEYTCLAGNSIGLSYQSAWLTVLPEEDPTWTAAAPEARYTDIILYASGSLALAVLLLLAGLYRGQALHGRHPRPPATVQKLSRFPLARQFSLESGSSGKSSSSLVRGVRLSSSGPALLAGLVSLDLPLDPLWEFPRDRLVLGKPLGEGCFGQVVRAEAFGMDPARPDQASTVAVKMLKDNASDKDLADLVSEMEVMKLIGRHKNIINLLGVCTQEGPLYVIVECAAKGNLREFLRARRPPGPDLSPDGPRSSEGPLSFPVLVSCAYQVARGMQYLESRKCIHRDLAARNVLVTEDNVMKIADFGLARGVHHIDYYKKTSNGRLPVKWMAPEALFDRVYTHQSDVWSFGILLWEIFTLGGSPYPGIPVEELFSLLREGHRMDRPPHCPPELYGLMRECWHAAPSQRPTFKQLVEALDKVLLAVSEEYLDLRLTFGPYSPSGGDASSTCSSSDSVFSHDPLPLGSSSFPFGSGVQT
# How it was run: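 Step one: compound dilutions in DMSO are sprayed into wells. Step two: transfected Ba/F3-FGFR4 cells are added at 20000 per well and incubated 24 hours at 37° C. Step three: Alamar Blue is added for 4 hours and relative fluorescence is measured.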
# [13] = average values if tested multiple times
# [14] = plus IL3 (10 ng/ml murine IL3, counterscreen)
smiles,measurement,setting,value
COc1cc(/N=c2\ccc3ncc(-c4cnn(C)c4)nc3n2CC2CCCCO2)cc(OC)c1 (centres unmarked),melting point,,210 °C
COc1cc(OC)c(F)c(N(Cc2ncn(C3CNC3)n2)c2ccc3ncc(-c4cnn(C)c4)nc3n2)c1,melting point,,126 °C
CNCCN(c1ccc2ncc(-c3cn[nH]c3)nc2n1)c1c(F)c(OC)cc(OC)c1F (as salt: HCl) (hydrate or solvate) [Compound 106],melting point,,250 °C
COc1cc(/N=c2\ccc3ncc(-c4cnn(C)c4)nc3n2Cc2cc[nH]n2)c(F)c(OC)c1 (as salt: HCl) (hydrate or solvate) [Compound 115],melting point,,130 °C
COc1cc(OC)c(F)c(N(Cc2ncc[nH]2)c2ccc3ncc(-c4cnn(C)c4)nc3n2)c1 (as salt: fumarate) [Compound 23],melting point,,186 °C
COc1cc(OC)cc(N(Cc2ncc[nH]2)c2ccc3ncc(-c4cnn(C)c4)nc3n2)c1 (as salt: fumarate) [Compound 24],melting point,,222 °C
COc1cc(OC)c(F)c(N(Cc2ncc[nH]2)c2ccc3ncc(-c4cnn(C)c4)nc3n2)c1 (as salt: hydrochloric acid salt) [Compound 23],melting point,,216 °C
COc1cc(OC)cc(N(Cc2ncc[nH]2)c2ccc3ncc(-c4cnn(C)c4)nc3n2)c1 (as salt: hydrochloride) (hydrate or solvate) [Compound 24],melting point,,> 260 °C
COc1cc(OC)cc(N(CCN2CCOCC2)c2ccc3ncc(-c4cnn(C)c4)nc3n2)c1 (as salt: hydrochloride) (hydrate or solvate) [Compound 146],melting point,,143 °C
COc1cc(OC)c(F)c(N(Cc2ncc[nH]2)c2ccc3ncc(-c4cnn(C)c4)nc3n2)c1 (as salt: lactate) [Compound 23],melting point,,118 °C
COc1cc(OC)c(F)c(N(Cc2ncc[nH]2)c2ccc3ncc(-c4cnn(C)c4)nc3n2)c1 (as salt: phosphate) [Compound 23],melting point,,175 °C
COc1cc(OC)cc(N(Cc2ncc[nH]2)c2ccc3ncc(-c4cnn(C)c4)nc3n2)c1 (as salt: phosphate) [Compound 24],melting point,,253 °C
COc1cc(OC)c(F)c(N(Cc2ncc[nH]2)c2ccc3ncc(-c4cnn(C)c4)nc3n2)c1 (as salt: sulfate) [Compound 23],melting point,,198 °C
COc1cc(OC)cc(N(Cc2ncc[nH]2)c2ccc3ncc(-c4cnn(C)c4)nc3n2)c1 (as salt: sulphate) [Compound 24],melting point,,266 °C
COc1cc(OC)cc(N(Cc2ncc[nH]2)c2ccc3ncc(-c4cnn(C)c4)nc3n2)c1 (as salt: tartrate) [Compound 24],melting point,,176 °C
CNCCN(c1ccc2ncc(-c3cnn(C)c3)nc2n1)c1c(F)c(OC)cc(OC)c1F (hydrate or solvate) [Compound 3],melting point,,134 °C
"COc1cc(OC)c(F)c(/N=c2\ccc3ncc(-c4cnn(C)c4)nc3n2CCCO)c1F (single isomer, unassigned) [Compound 17]",IC50,[1]; [13],0.251 nM
same,IC50,[2]; [13],1.26 nM
same,IC50,[3]; [13],0.398 nM
same,IC50,[4]; [13],0.501 nM
same,IC50,[5]; [13],3.98 nM
same,BAF3-FGFR1 (MIN IL3) pIC50,[6],8.7
same,IC50,[7]; [14],> 10000 nM
same,BAF3-FGFR3 (MIN IL3) pIC50,[8],8.6
same,IC50,[9]; [14],> 10000 nM
same,BAF3-KDR (MIN IL3) pIC50,[10],6.8
same,melting point,,206 °C
CNCCn1/c(=N/c2c(F)c(OC)cc(OC)c2F)ccc2ncc(-c3cnn(C)c3)nc21 [Compound 4],IC50,[1]; [13],1.26 nM
same,IC50,[2]; [13],3.98 nM
same,IC50,[3]; [13],3.16 nM
same,IC50,[4]; [13],7.94 nM
same,IC50,[5]; [13],63.1 nM
same,BAF3-FGFR1 (MIN IL3) pIC50,[6],7.3
same,IC50,[7]; [14],> 10000 nM
same,BAF3-FGFR3 (MIN IL3) pIC50,[8],6.9
same,IC50,[9]; [14],> 10000 nM
same,BAF3-KDR (MIN IL3) pIC50,[10],5.4
same,melting point,,174 °C
COc1cc(OC)c(F)c(N(CCS(C)(=O)=O)c2ccc3ncc(-c4cnn(C)c4)nc3n2)c1 [Compound 226],IC50,[1],0.912 nM
same,IC50,[2],2.19 nM
same,IC50,[3],1.12 nM
same,IC50,[4],3.02 nM
same,IC50,[5],26.3 nM
same,BAF3-FGFR1 (MIN IL3) pIC50,[6],7.32
same,IC50,[7],> 10000 nM
same,BAF3-FGFR3 (MIN IL3) pIC50,[8],~7.54
same,IC50,[9],> 10000 nM
same,BAF3-KDR (MIN IL3) pIC50,[10],5.92
same,IC50,[11],> 10000 nM
same,BAF3-FGFR4 pIC50,[12],6.60
COc1cc(OC)cc(N(CCNC(C)=O)c2ccc3ncc(-c4cnn(C)c4)nc3n2)c1 [Compound 235],IC50,[5],79.4 nM
same,IC50,[7]; [14],> 10000 nM
same,IC50,[9]; [14],> 10000 nM
same,BAF3-KDR (MIN IL3) pIC50,[10],5.62
same,IC50,[11]; [14],> 10000 nM
same,melting point,,193 °C
COc1cc(OC)c(F)c(N(CC(N)=O)c2ccc3ncc(-c4cnn(C)c4)nc3n2)c1 [Compound 239],IC50,[1],5.37 nM
same,IC50,[2],7.94 nM
same,IC50,[3],5.25 nM
same,IC50,[4],35.5 nM
same,IC50,[5],148 nM
same,BAF3-FGFR1 (MIN IL3) pIC50,[6],6.44
same,IC50,[7],> 10000 nM
same,BAF3-FGFR3 (MIN IL3) pIC50,[8],6.51
same,IC50,[9],> 10000 nM
same,BAF3-KDR (MIN IL3) pIC50,[10],5.27
same,IC50,[11],> 10000 nM
same,BAF3-FGFR4 pIC50,[12],5.87
COc1cc(/N=c2\ccc3ncc(-c4cnn(C)c4)nc3n2CCNC(C)=O)c(F)c(OC)c1 [Compound 243],IC50,[1],0.977 nM
same,IC50,[2],1.62 nM
same,IC50,[3],1.32 nM
same,IC50,[4],1.95 nM
same,IC50,[5],15.1 nM
same,BAF3-FGFR1 (MIN IL3) pIC50,[6],7.85
same,IC50,[7],> 10000 nM
same,BAF3-FGFR3 (MIN IL3) pIC50,[8],~8.13
same,IC50,[9],> 10000 nM
same,BAF3-KDR (MIN IL3) pIC50,[10],6.00
same,IC50,[11],> 10000 nM
same,BAF3-FGFR4 pIC50,[12],7.14
CCN(c1ccc2ncc(-c3cnn(C)c3)nc2n1)c1c(F)c(OC)cc(OC)c1F [Compound 256],IC50,[1],0.49 nM
same,IC50,[2],1.66 nM
same,IC50,[3],0.708 nM
same,IC50,[4],1.02 nM
same,IC50,[5],8.71 nM
same,BAF3-FGFR1 (MIN IL3) pIC50,[6],8.05
same,IC50,[7],> 10000 nM
same,BAF3-FGFR3 (MIN IL3) pIC50,[8],8.16
same,IC50,[9],> 10000 nM
same,BAF3-KDR (MIN IL3) pIC50,[10],6.16
same,IC50,[11],> 10000 nM
same,BAF3-FGFR4 pIC50,[12],7.36
COc1cc(OC)c(F)c(N(Cc2nnc(NCCO)o2)c2ccc3ncc(-c4cnn(C)c4)nc3n2)c1 [Compound 283],IC50,[1],~7.08 nM
same,IC50,[2],5.13 nM
same,IC50,[3],5.13 nM
same,IC50,[4],21.4 nM
same,IC50,[5],105 nM
same,BAF3-FGFR1 (MIN IL3) pIC50,[6],5.18
same,IC50,[7],> 10000 nM
same,BAF3-FGFR3 (MIN IL3) pIC50,[8],5.26
same,IC50,[9],> 10000 nM
same,BAF3-KDR (MIN IL3) pIC50,[10],<5
same,IC50,[11],> 10000 nM
same,BAF3-FGFR4 pIC50,[12],<5
